Series [1] is described as follows: Circular dichroism, helicity. Format: physicochemical. The note with it: CD 185-260 nm, 0.2 mg/ml peptide in water, 298 K; CDSSTR method, reference set 3, Dichroweb. In general terms: Circular dichroism is the unequal absorption of left and right circularly polarised light.
Description: CD spectra were recorded at 1 nm intervals between 260 and 185 nm using an Aviv Model 410 CD spectrometer with a 1 mm path length quartz cuvette at 298 K. Three scans were recorded for each peptide or protein, the data were averaged, and the buffer background was subtracted. RLIP76 RBDs were measured at 0.2 mg/ml in 10 mM phosphate buffer, pH 7.3, and 150 mM NaF, while peptides were measured at 0.2 mg/ml in water. The helical content of each peptide and RBD was determined using the CDSSTR method with reference Set 3 and DichroWeb ([59], [60], [61]).
A further series addresses RalB (Homo sapiens) (UniProt P11234). The note with it: cited from earlier work.
The target in the next series is R-Ras (Homo sapiens) (UniProt P10301). The note with it: cited from earlier work.
Chain of R-Ras (Homo sapiens) (P10301 1-215): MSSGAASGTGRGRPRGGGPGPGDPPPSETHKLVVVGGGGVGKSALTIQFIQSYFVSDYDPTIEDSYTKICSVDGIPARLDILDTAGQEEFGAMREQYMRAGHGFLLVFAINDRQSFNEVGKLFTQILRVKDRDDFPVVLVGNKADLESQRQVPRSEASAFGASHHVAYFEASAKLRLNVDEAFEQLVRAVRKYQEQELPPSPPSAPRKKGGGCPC
The target in the next series is RalA (Homo sapiens) (UniProt P11233). Conditions: cited from earlier work.
The target of series [2] is SP1 stapled peptide (RLIP76) 423-446 (Homo sapiens) (UniProt Q15311). The note with it: cited from earlier work.
Chain of SP1 stapled peptide (RLIP76) 423-446 (Homo sapiens) (Q15311 423-446): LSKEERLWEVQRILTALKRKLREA
For another series, the target named is T1, RhoA·GMPPNP (Homo sapiens, UniProt P61586, F25N/Q63L).
T1 construct: RhoA (pGEX-2T, 1–186, F25N/Q63L); GST (cleaved yes); made in house
T1 sequence (P61586 1-186 F25N/Q63L): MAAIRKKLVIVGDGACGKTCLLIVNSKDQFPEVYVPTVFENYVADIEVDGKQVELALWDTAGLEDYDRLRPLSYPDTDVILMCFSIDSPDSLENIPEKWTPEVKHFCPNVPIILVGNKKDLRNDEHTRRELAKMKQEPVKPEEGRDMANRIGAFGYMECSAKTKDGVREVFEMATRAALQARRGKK
Description: Direct-binding fluorescence polarization, RhoA. Conditions: 20 nM FAM-labelled non-solubilized peptide; n ≥ 2; ± standard error from curve fitting; read-out: Kd RhoA, FP (Table S1). The protocol:
(§1) FP experiments were performed on a BMG Labtech Pherastar fluorimeter at 298 K with excitation at 485 nm and emission at 520 nm as described previously ([34]), using 20 nM FAM-labeled peptide. Plates were read after 30 min incubation at room temperature. Data were fitted to a single-site binding model using nonlinear regression analysis in GraphPad prism 8.4 to obtain Kd values and their standard errors.
On the technique in general: Fluorescence polarisation rises when a labelled molecule tumbles more slowly, as on binding a larger partner.

A further series concerns cells. Conditions: confocal microscopy of FAM-labeled peptide; cited from earlier work. An excerpt: It has been shown previously that stapled peptides need to form an amphipathic helix in order to enter cells ([52]), and the amphipathicity of our peptide was disrupted by the inclusion of the so ...
A short description of series [3]: Solubility in aqueous solution (observation). It counts as physicochemical. Conditions: qualitative.
A further series concerns the target T2, Cdc42 (Homo sapiens, UniProt P60953, Q61L).
T2 construct: Cdc42 (pGEX-2T, 1–184, Q61L); GST (cleaved yes); made in house
Description: Direct-binding fluorescence polarization, Cdc42. The note with it: 20 nM FAM-labelled non-solubilized peptide; n ≥ 2; ± standard error from curve fitting; read-out: Kd Cdc42, FP (Table S1). As to the method: as §1

Another series addresses T3, RalA·GTP (Homo sapiens, UniProt P11233, Q72L).
T3 construct: RalA (pMAT10, residues 1–184, Q72L); His6-MBP (cleaved yes); made in house; host or cells: E. coli (inferred from the pMAT10/pGEX vectors)
T3 sequence (P11233 1-184 Q72L): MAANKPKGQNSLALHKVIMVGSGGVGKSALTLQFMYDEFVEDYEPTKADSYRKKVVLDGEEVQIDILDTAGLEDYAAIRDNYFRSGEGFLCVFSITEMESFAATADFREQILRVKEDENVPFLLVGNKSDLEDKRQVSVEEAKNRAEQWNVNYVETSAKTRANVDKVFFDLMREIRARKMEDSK
Description: Competition SPA, RalA against immobilized His-tagged wild-type RLIP76 RBD. Format: binding.

The test system of series [4] is V5-RalB Q72L / flag-RLIP76 complex. Nature of the series: Coimmunoprecipitation of RalB/RLIP76 in HEK293T cell lysate. Format: biochemical. The note with it: V5-RalB Q72L and flag-RLIP76, peptide 1 h at 4 °C, anti-V5 IP, western blot. As to the method:
(§2) 3 × 10^6 HEK293T cells were seeded in 10 cm dishes 48 h before the end point, in DMEM supplemented with 10% FBS. […] Dishes were lysed in 1 ml lysis buffer (50 mM Tris-HCl pH 7.8, 150 mM NaCl, 1% Triton, 1 mM EDTA, 1 mM sodium orthovanadate, 1 mM β-glycerophosphate, and protease inhibitor cocktail (Sigma-Aldrich). Lysates (1 ml) were centrifuged at 17,000g for 20 min and added to Protein G Dynabeads (30 μl, Invitrogen) preincubated with anti-V5 antibody (1 μg, R960-25, Invitrogen). Peptides, at the concentrations indicated in the results, were added and incubated with rotation for 1 h at 4 °C. Precipitated complexes were washed with lysis buffer (3 × 500 μl). Samples were resolved by SDS-PAGE and transferred to PVDF membranes (Immobilon-P). Membranes were probed by immunoblotting with the following primary antibodies: anti-V5-HRP (R961-25, Invitrogen), anti-flag-HRP (A8592, Sigma-Aldrich), and anti-Sec5 (EPR9420, Abcam).
On the technique in general: A western blot detects proteins with antibodies after separation by electrophoresis.

Series [5] deals with V5-RalB Q72L / endogenous Sec5 complex. Nature of the series: Coimmunoprecipitation of RalB/Sec5 in HEK293T cell lysate. Format: biochemical. The note with it: peptide 1 h at 4 °C, anti-V5 IP, western blot. As to the method:
as §2

The target in series [6] is SP1 stapled peptide (RLIP76) 423-446 (Homo sapiens) (UniProt Q15311). Conditions: cited from earlier work. This is another data set of the same source.
Series [7] shares this target. The note with it: cited from earlier work. This is another data set of the same source.
Series [8] deals with RalA (residues 1–184, Q72L) (UniProt P11233). Nature of the series: scintillation proximity assay (competition); His-tagged wild-type RLIP76 RBD immobilised on SPA beads, fixed [3H]GTP·RalA (100 nM) or [3H]GTP·RalB (250 nM), competitor RBD or peptide titrated; pure competition model, apparent Kd (Ki).
The target in series [9] is T4, RalB (residues 1–185, Q72L) (UniProt P11234 1-185, Q72L).
T4 construct: Loaded with [3H]GTP for SPA, with GMPPNP for ITC, FP and crystallisation; also called RalB·GTP; source: expressed from pMAT10 as His6-MBP fusion, cleaved from its tag as described previously
T4 sequence (looked up): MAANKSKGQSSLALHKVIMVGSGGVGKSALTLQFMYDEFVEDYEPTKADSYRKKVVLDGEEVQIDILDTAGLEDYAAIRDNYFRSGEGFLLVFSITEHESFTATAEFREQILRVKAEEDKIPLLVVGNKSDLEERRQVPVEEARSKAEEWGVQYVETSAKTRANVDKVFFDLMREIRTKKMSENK
The description is as above. The note with it: both partners purified.

We go through nine molecules from PMC7949049 (The Journal of Biological Chemistry, 2020).

Entries after “also recorded” stand apart in the source; their conditions may differ. Read-outs that look alike come from different tables or passages of the source. Positions of bridges follow the written chain, without caps; N, C: chain ends. Non-standard residues stand in square brackets, D forms with d. Residues, ends and D or L forms follow the SMILES beside them. *: point of attachment. 5FAM = O=C1OC2(c3ccc(O)cc3Oc3cc(O)ccc32)c2ccc(C(=O)*)cc21; S5 = C=CCCC[C@](C)(N)C(=O)O

T2 sequence (P60953 1-184 Q61L, species assumed): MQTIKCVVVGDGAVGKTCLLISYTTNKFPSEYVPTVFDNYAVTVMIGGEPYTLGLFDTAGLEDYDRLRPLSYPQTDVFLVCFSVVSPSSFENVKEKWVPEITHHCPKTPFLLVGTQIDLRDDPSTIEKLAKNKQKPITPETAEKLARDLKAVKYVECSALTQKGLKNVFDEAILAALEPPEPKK

In the case of `CC[C@H](C)[C@H](NC(=O)[C@H](CCCNC(=N)N)NC(=O)[C@H](CCC(N)=O)NC(=O)[C@H](CCC(=O)O)NC(=O)[C@H](CCC(=O)O)NC(=O)[C@H](Cc1c[nH]c2ccccc12)NC(=O)[C@H](CC(C)C)NC(=O)[C@]1(C)CCCC=CCCC[C@](C)(NC(=O)[C@@H](N)CC(C)C)C(=O)N[C@@H](CCCCN)C(=O)N[C@@H](CCC(=O)O)C(=O)N[C@@H](CCC(=O)O)C(=O)N1)C(=O)N[C@@H](CCCCN)C(=O)N[C@H](C(=O)N[C@@H](C)C(=O)N[C@@H](CCC(=O)O)C(=O)N[C@@H](CCCCN)C(=O)N[C@@H](CCCNC(=N)N)C(=O)N[C@@H](CCCCN)C(=O)N[C@@H](CCCCN)C(=O)N[C@@H](CCCNC(=N)N)C(=O)N[C@@H](CCC(=O)O)C(=O)N[C@@H](C)C(N)=O)[C@@H](C)O` [wt-sol] (H-L[S5]KEE[S5]LWEEQRIKTAEKRKKREA-NH2; staple 2-6; N-terminus assumed), the “Helicity (%) of peptides” value in series [1] stood at 46%.
Take “SP1 stapled peptide 423-446 (from UniProt Q15311)”: the Kd is 5 µM with RalB (Homo sapiens), 30 µM with R-Ras (Homo sapiens) and 14 µM with RalA (Homo sapiens).
In the case of RalA (from UniProt P11233), the Kd in series [2] was 14 µM.
As to `CC[C@H](C)[C@H](NC(=O)[C@H](CCCNC(=N)N)NC(=O)[C@H](CCC(N)=O)NC(=O)[C@@H](NC(=O)[C@H](CCC(=O)O)NC(=O)[C@H](Cc1c[nH]c2ccccc12)NC(=O)[C@H](CC(C)C)NC(=O)[C@]1(C)CCCC=CCCC[C@](C)(NC(=O)[C@H](CC(C)C)NC(=O)c2ccc3c(c2)C(=O)OC32c3ccc(O)cc3Oc3cc(O)ccc32)C(=O)N[C@@H](CCCCN)C(=O)N[C@@H](CCC(=O)O)C(=O)N[C@@H](CCC(=O)O)C(=O)N1)C(C)C)C(=O)N[C@@H](CC(C)C)C(=O)N[C@H](C(=O)N[C@@H](C)C(=O)N[C@@H](CC(C)C)C(=O)N[C@@H](CCCCN)C(=O)N[C@@H](CCCNC(=N)N)C(=O)N[C@@H](CCCCN)C(=O)N[C@@H](CC(C)C)C(=O)N[C@@H](CCCNC(=N)N)C(=O)N[C@@H](CCC(=O)O)C(=O)N[C@@H](C)C(N)=O)[C@@H](C)O` [SP1] (5FAM-L[S5]KEE[S5]LWEVQRILTALKRKLREA-NH2; staple 2-6), the Kd amounted to 0.0338 ± 0.0054 µM at RhoA·GMPPNP and 13 ± 7.4 µM at Cdc42. The “cell entry (previous work)” value in the series with cells was “able to enter cells”. Moreover, in series [3], the solubility result is recorded as “poor solubility; also recorded: poorly soluble”.
On RalA·GTP, `CC[C@H](C)[C@H](NC(=O)[C@H](CCCNC(=N)N)NC(=O)[C@H](CCC(N)=O)NC(=O)[C@H](CCC(=O)O)NC(=O)[C@H](CCC(=O)O)NC(=O)[C@H](C)NC(=O)[C@H](CC(C)C)NC(=O)[C@]1(C)CCCC=CCCC[C@](C)(NC(=O)[C@@H](N)CC(C)C)C(=O)N[C@@H](CCCCN)C(=O)N[C@@H](CCC(=O)O)C(=O)N[C@@H](CCC(=O)O)C(=O)N1)C(=O)N[C@@H](CCCCN)C(=O)N[C@H](C(=O)N[C@@H](C)C(=O)N[C@@H](CCC(=O)O)C(=O)N[C@@H](CCCCN)C(=O)N[C@@H](CCCNC(=N)N)C(=O)N[C@@H](CCCCN)C(=O)N[C@@H](CCCCN)C(=O)N[C@@H](CCCNC(=N)N)C(=O)N[C@@H](CCC(=O)O)C(=O)N[C@@H](C)C(N)=O)[C@@H](C)O` [W430A-sol] (H-L[S5]KEE[S5]LAEEQRIKTAEKRKKREA-NH2; staple 2-6; N-terminus assumed) showed a Kd of more than 100 µM. The “Kd RalA·GTP, Competition SPA (RLIP76)” value on RalA·GTP (peptides titrated into [3H]-GTP RalA (100 nM) and His-tagged wild-type RLIP76 RBD on SPA beads, apparent Kd (Ki), ± standard error from curve fitting) is “very weak binding”. The “disruption of RalB–RLIP76 complex in cell lysate” value in series [4] is listed as “did not inhibit complex formation”. The “disruption of RalB–Sec5 complex in cell lysate” value in [5] is “did not inhibit complex formation”.
As to RalB (from UniProt P11234), the Kd in [6] is 5 µM.
Regarding R-Ras (from UniProt P10301), the Kd in series [7] was 30 µM.
Turning to `CC[C@H](C)[C@H](NC(=O)[C@H](CCCNC(=N)N)NC(=O)[C@H](CC(C)C)NC(=O)[C@@H](NC(=O)[C@H](CCC(=O)O)NC(=O)[C@H](Cc1c[nH]c2ccccc12)NC(=O)[C@H](CC(C)C)NC(=O)[C@]1(C)CCCC=CCCC[C@](C)(NC(=O)[C@H](CC(C)C)NC(=O)c2ccc3c(c2)C(=O)OC32c3ccc(O)cc3Oc3cc(O)ccc32)C(=O)N[C@@H](CCCCN)C(=O)N[C@@H](CCC(=O)O)C(=O)N[C@@H](Cc2c[nH]cn2)C(=O)N1)C(C)C)C(=O)N[C@@H](CC(C)C)C(=O)N[C@H](C(=O)N[C@@H](C)C(=O)N[C@@H](CC(C)C)C(=O)N[C@@H](CCCNC(=N)N)C(=O)N[C@@H](CCCNC(=N)N)C(=O)N[C@@H](CCCCN)C(=O)N[C@@H](CC(C)C)C(=O)N[C@@H](CCCNC(=N)N)C(=O)N[C@@H](CCC(=O)O)C(=O)N[C@@H](C)C(N)=O)[C@@H](C)O` [HLR-SP1] (5FAM-L[S5]KEH[S5]LWEVLRILTALRRKLREA-NH2; staple 2-6), the figures for the Kd on RhoA·GMPPNP and on Cdc42 were 0.0125 ± 0.0022 µM and 6.11 ± 1.67 µM, respectively.

B1: RLIP76 RBD WDASQSR mutant (domain or fragment)
chain: ETQAGIKEEIRRQEFLLNSLHRDLQGGIKDLSKWDRAWEVSQILSALRRKLREA
notes: RLIP76 residues 423-446 (helix α2); Selected by CIS display; source: E. coli, recombinant; cleaved from its tag
B1: the values for the Kd in series [8] and in series [9] were 3.02 µM and 6.97 µM, respectively.
